In ChEMBL document CHEMBL1250554, “Design and preparation of sterol mimetics as potential antiparasitics” (Bioorg Med Chem, 2010):

tested on: not listed separately; assay: Cytotoxicity against rat L6 cells; type: cell-based; conditions: read-out: TD50 (the source's name)

Compound | CC50
COC(=O)CCCNCCc1ccc(NC(=O)c2ccc(COC(C)=O)cc2)cc1 | > 218 µM
COC(=O)CCCNCc1ccc(NC(=O)c2ccc(COC(C)=O)cc2)cc1 | 161 µM
CC(=O)OCc1ccc(NC(=O)N2CCC(CO)C2)cc1 (centres undefined) | > 308 µM
COC(=O)CCCNCC1CCN(C(=O)Nc2ccc(COC(C)=O)cc2)C1 (centres undefined) | > 230 µM
CC(=O)OCc1ccc(NC(=O)N2CCC(CN3CCCC3=O)C2)cc1 (centres undefined) | > 250 µM
COC(=O)CCCCCNCC1CCN(C(=O)Nc2ccc(COC(C)=O)cc2)C1 (centres undefined) | > 214 µM

tested on: Trypanosoma brucei rhodesiense; assay: Antiparasitic activity against blood stream form of Trypanosoma brucei rhodesiense; type: functional, organism-based; conditions: not given

Compound | EC50
COC(=O)CCCNCCc1ccc(NC(=O)c2ccc(COC(C)=O)cc2)cc1 | 11.5 µM
COC(=O)CCCNCc1ccc(NC(=O)c2ccc(COC(C)=O)cc2)cc1 | 78 µM
COC(=O)CCCNCC1CCN(C(=O)Nc2ccc(COC(C)=O)cc2)C1 (centres undefined) | 40 µM
CC(=O)OCc1ccc(NC(=O)N2CCC(CN3CCCC3=O)C2)cc1 (centres undefined) | 43 µM

The remaining lines, values ahead:

EC50 | Compound
52 µM | CC(=O)OCc1ccc(NC(=O)N2CCC(CO)C2)cc1 (centres undefined)
76 µM | COC(=O)CCCCCNCC1CCN(C(=O)Nc2ccc(COC(C)=O)cc2)C1 (centres undefined)

tested on: Trypanosoma cruzi; assay: Antiparasitic activity against amastigotes of Trypanosoma cruzi; type: functional, organism-based; conditions: not given

Compound | EC50
COC(=O)CCCNCCc1ccc(NC(=O)c2ccc(COC(C)=O)cc2)cc1 | 141 µM
COC(=O)CCCNCc1ccc(NC(=O)c2ccc(COC(C)=O)cc2)cc1 | 207 µM
COC(=O)CCCNCC1CCN(C(=O)Nc2ccc(COC(C)=O)cc2)C1 (centres undefined) | > 230 µM
CC(=O)OCc1ccc(NC(=O)N2CCC(CN3CCCC3=O)C2)cc1 (centres undefined) | 181 µM

More lines, now with the values ahead:

EC50 | Compound
> 308 µM | CC(=O)OCc1ccc(NC(=O)N2CCC(CO)C2)cc1 (centres undefined)
> 215 µM | COC(=O)CCCCCNCC1CCN(C(=O)Nc2ccc(COC(C)=O)cc2)C1 (centres undefined)

tested on: Leishmania donovani; assay: Antiparasitic activity against axenic amastigotes of Leishmania donovani; type: functional, organism-based; conditions: not given

Compound | EC50
COC(=O)CCCNCCc1ccc(NC(=O)c2ccc(COC(C)=O)cc2)cc1 | 73 µM
COC(=O)CCCNCc1ccc(NC(=O)c2ccc(COC(C)=O)cc2)cc1 | 2.6 µM
COC(=O)CCCNCC1CCN(C(=O)Nc2ccc(COC(C)=O)cc2)C1 (centres undefined) | 80 µM
CC(=O)OCc1ccc(NC(=O)N2CCC(CN3CCCC3=O)C2)cc1 (centres undefined) | 30 µM

Further lines, results first:

EC50 | Compound
26 µM | CC(=O)OCc1ccc(NC(=O)N2CCC(CO)C2)cc1 (centres undefined)
41 µM | COC(=O)CCCCCNCC1CCN(C(=O)Nc2ccc(COC(C)=O)cc2)C1 (centres undefined)
